Experiments:
human CCR6 = target: T1, human CCR6 (Homo sapiens, UniProt P51684); assay: Human CCR6-Cre reporter assay; type: cell-based; set-up: The second construct contained the open reading frame of human CCR6 in the pUNO1 backbone; host or cells: 293 FT cells; conditions: relative -LogIC50; transfected 293 FT cells, 6 μM Forskolin, 6 nM CCL20, luciferase readout, 5h
T1 sequence (P51684 1-374): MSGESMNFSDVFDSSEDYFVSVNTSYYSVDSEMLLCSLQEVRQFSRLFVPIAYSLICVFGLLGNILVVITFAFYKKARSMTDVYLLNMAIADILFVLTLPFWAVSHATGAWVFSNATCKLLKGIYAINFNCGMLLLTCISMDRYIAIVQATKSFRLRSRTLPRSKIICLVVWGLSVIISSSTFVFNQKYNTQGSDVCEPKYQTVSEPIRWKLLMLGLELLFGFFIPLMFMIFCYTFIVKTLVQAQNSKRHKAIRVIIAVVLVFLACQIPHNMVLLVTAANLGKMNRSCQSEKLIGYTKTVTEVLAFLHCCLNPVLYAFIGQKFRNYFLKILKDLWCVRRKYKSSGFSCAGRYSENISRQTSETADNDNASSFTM
Description: 293 FT cells were transfected with 2 constructs using TransIT-293 (Mirus). The first construct (pGL4.29, Promega) expressed the luciferase reporter gene luc2P in response to the binding of cAMP-induced CREB to the CRE element in its promoter. The second construct contained the open reading frame of human CCR6 in the pUNO1 backbone under the control of an enhanced CMV promoter (In VivoGen). 48h after transfection, cells were harvested and diluted to 750,000 cells/ml in culture medium (DMEM, 10% FBS, 1× pen/strep (Gibco 15140)). Compounds were 2.5-fold serially diluted in DMSO. Further dilutions were made in assay medium (DMEM, 10% FBS, 1× pen/strep, 6 μM Forskolin, 6 nM CCL20). 4 μl of the compound solution was added to a white MW384 plate, followed by 20 μl of the cell suspension. Final DMSO concentration in the assay was 0.1%. The MW384 plate was placed in an incubator at 37° C., 5% CO2 for 5h. Luciferase activity was determined by addition of 24 μl of a 2.5× diluted BriteLite luciferase solution (Perkin Elmer), followed by luminescence measurement using a VICTOR Plate reader (Perkin Elmer). […] The relative-LogIC50 was determined with GraphPad Prism 9 using a four-parameter dose-response model.

Human CD4+ T cells = assay: CD4+ T cell chemotaxis assay towards CCL20; type: cell-based; conditions: relative -LogIC50, 150 ng/ml CCL20, Transwell, 3 h
Excerpt: Human CD4+ T cells were isolated from buffy coats of healthy donors using a CD4+ T Cell Isolation Kit (Miltenyi Biotec130-096-533). Isolated T cells were stimulated overnight with anti-CD3 and anti-CD28 antibodies (Biolegend 300314/302934) in growth medium (RPMI1640, 10% heat-inactivated FBS, 1× pen/strep (Gibco 15140)). For the chemotaxis assay, Corning Transwell plates were used with a pore size of 5 μm (Corning 3388). T cells were counted and diluted to 6*10^6 cells/ml in chemotaxis medium (RPMI1640, 1% BSA, pen/strep). Compounds were four-fold serially diluted in DMSO. Further dilutions were made in chemotaxis medium. Cells were incubated with test compounds for 30 min at 37° C. prior to initiation of the assay (3*10^6 cells/ml). Final DMSO concentration in the assay was 0.2%. Wells of the Transwell plates were filled with 200 μl chemotaxis medium containing 150 ng/ml CCL20 (R&D systems 360-MP). 50 μl of the cell/compound suspension was added to the inserts of the Transwell plates (150,000 cells/insert). The Transwell plates were placed in an incubator at 37° C., 5% CO2 for 3 h. After 3 h, the number of migrated cells was quantified using CellTiter Glo (Promega). Percentage inhibition values were calculated based on the low and high signal obtained with 0.2% DMSO in chemotaxis medium without and with CCL20, respectively. The relative −LogIC50 was determined with GraphPad Prism 9 using a four-parameter dose-response model.

| Compound | IC50 (human CCR6) | IC50 (Human CD4+ T cells) |
| --- | --- | --- |
| N#CC1(c2ccc(NC3CCN(S(=O)(=O)c4ccc(N5CCC6(CCNC6=O)CC5)cc4)CC3)nc2)CC1 [Example 28, 1-(6-{[1-(4-{1-oxo-2,8-diazaspiro[4.5]decan-8-yl}benzenesulfonyl)piperidin-4-yl]amino}pyridin-3-yl)cyclopropane-1-carbonitrile] | 39.8 µM | – |
| N#CC1(c2ccc(NC3CCN(S(=O)(=O)c4ccc(N5CCC6(CC5)COC6)cc4)CC3)nc2)CC1 [Example 29, 1-(6-{[1-(4-{2-oxa-7-azaspiro[3.5]nonan-7-yl}benzenesulfonyl)piperidin-4-yl]amino}pyridin-3-yl)cyclopropane-1-carbonitrile] | 10 µM | – |
| N#CC1(c2ccc(NC3CCN(S(=O)(=O)c4ccc(N5CCC(CC(N)=O)CC5)cc4)CC3)nc2)CC1 [Example 24, 2-(1-{4-[(4-{[5-(1-cyanocyclopropyl)pyridin-2-yl]amino}piperidin-1-yl)sulfonyl]phenyl}piperidin-4-yl) acetamide] | 5.01 µM | – |
| N#CC1(c2ccc(NC3CCN(S(=O)(=O)c4ccc(N5CCC(CNC(N)=O)CC5)cc4)CC3)nc2)CC1 [Example 25, [(1-{4-[(4-{[5-(1-cyanocyclopropyl)pyridin-2-yl]amino}piperidin-1-yl)sulfonyl]phenyl}piperidin-4-yl)methyl]urea] | 12.6 µM | – |
| N#CC1(c2ccc(NC3CCN(S(=O)(=O)c4ccc(N5CCC6(CC5)CC(=O)NC(=O)C6)cc4)CC3)nc2)CC1 [Example 26, 1-(6-{[1-(4-{8,10-dioxo-3,9-diazaspiro[5.5]undecan-3-yl}benzenesulfonyl)piperidin-4-yl]amino}pyridin-3-yl)cyclopropane-1-carbonitrile] | 2.51 µM | – |
| Cc1nnc2ccc(-c3ccc(S(=O)(=O)N4CCC(Nc5ccc(C6(C(F)(F)F)CC6)cn5)CC4)cc3)cn12 [Example 47, N-[1-(4-{3-methyl-[1,2,4]triazolo[4,3-a]pyridin-6-yl}benzenesulfonyl)piperidin-4-yl]-5-[1-(trifluoromethyl)cyclopropyl]pyridin-2-amine] | – | 0.0158 µM |
| Cc1n[nH]c2ccc(-c3ccc(S(=O)(=O)N4CCC(Nc5ccc(C6CC6)cc5)CC4)cc3)cc12 [Example 11, N-(4-cyclopropylphenyl)-1-[4-(3-methyl-1H-indazol-5-yl)benzenesulfonyl]piperidin-4-amine] | 0.501 µM | – |
| N#CC1(c2ccc(NC3CCN(S(=O)(=O)c4ccc(-c5ccc6nccn6c5)cc4)CC3)nc2)CC1 [Example 33, 1-(6-{[1-(4-{imidazo[1,2-a]pyridin-6-yl}benzenesulfonyl)piperidin-4-yl]amino}pyridin-3-yl)cyclopropane-1-carbonitrile] | 0.794 µM | – |
| N#CC1(c2ccc(NC3CCN(S(=O)(=O)c4ccc(N5CCC6(CC5)COC(=O)N6)cc4)CC3)nc2)CC1 [Example 27, 1-(6-{[1-(4-{2-oxo-3-oxa-1,8-diazaspiro[4.5]decan-8-yl}benzenesulfonyl)piperidin-4-yl]amino}pyridin-3-yl)cyclopropane-1-carbonitrile] | 7.94 µM | – |
| COC1CC2(CCN(c3ccc(S(=O)(=O)N4CCC(Nc5ccc(C6(C#N)CC6)cn5)CC4)cc3)CC2)C1 [Example 23, 1-(6-{[1-(4-{2-methoxy-7-azaspiro[3.5]nonan-7-yl}benzenesulfonyl)piperidin-4-yl]amino}pyridin-3-yl)cyclopropane-1-carbonitrile] | 1.26 µM | – |
| N#Cc1ccc(-c2ccc(S(=O)(=O)N3CCC(Nc4ccc(C5(C#N)CC5)cc4)CC3)cc2)cc1 [Example 1, 4′-[(4-{[4-(1-cyanocyclopropyl)phenyl]Amino}piperidin-1-yl)sulfonyl]-[1,1′-biphenyl]-4-carbonitrile] | 0.501 µM | – |

Next, values leading:

| IC50 (human CCR6) | IC50 (Human CD4+ T cells) | Compound |
| --- | --- | --- |
| 0.0794 µM | – | Cc1n[nH]c2ccc(-c3ccc(S(=O)(=O)N4CCC(Nc5ccc(C6(C(F)(F)F)CC6)cc5)CC4)cc3)cc12 [Example 2, 1-[4-(3-methyl-1H-indazol-5-yl)benzenesulfonyl]-N-{4-[1-(trifluoromethyl)cyclopropyl]phenyl}piperidin-4-amine] |
| 0.0398 µM | – | N#Cc1c[nH]c2ccc(-c3ccc(S(=O)(=O)N4CCC(Nc5ccc(C6(C(F)(F)F)CC6)cc5)CC4)cc3)cc12 [Example 8, 5-(4-{[4-({4-[1-(trifluoromethyl)cyclopropyl]phenyl}Amino)piperidin-1-yl]sulfonyl}phenyl)-1H-indole-3-carbonitrile] |
| 0.251 µM | – | N=S(=O)(c1ccc(-c2ccc3nccn3c2)cc1)[C@H]1CC[C@H](Nc2ccc(C3(C(F)(F)F)CC3)cc2)CC1 (stereo partly drawn) [Example 13, (4-{imidazo[1,2-a]pyridin-6-yl}phenyl) [trans-4-({4-[1-(trifluoromethyl)cyclopropyl]phenyl}Amino)cyclohexyl](imino)-26-sulfanone] |
| 0.0631 µM | – | CC(C)c1cnc2ccc(-c3ccc(S(=O)(=O)N4CCC(Nc5ccc(C6(C(F)(F)F)CC6)cn5)CC4)cc3)cn12 [Example 38, N-(1-{4-[3-(propan-2-yl)imidazo[1,2-a]pyridin-6-yl]benzenesulfonyl}piperidin-4-yl)-5-[1-(trifluoromethyl)cyclopropyl]pyridin-2-amine] |
| 0.251 µM | – | O=S(=O)(c1ccc(-c2ccc3nccn3c2)cc1)[C@H]1CC[C@H](Nc2ccc(C3CC3(F)F)cc2)CC1 (stereo partly drawn) [Example 14, 4-(2,2-difluorocyclopropyl)-N-[trans-4-(4-{imidazo[1,2-a]pyridin-6-yl}benzenesulfonyl)cyclohexyl]aniline] |
| 0.1 µM | – | O=S(=O)(c1ccc(-c2ccc3nccn3c2)cc1)N1CCC(Nc2ccc(C3(C(F)(F)F)CC3)cc2)CC1 [Example 9, 1-(4-{imidazo[1,2-a]pyridin-6-yl}benzenesulfonyl)-N-{4-[1-(trifluoromethyl)cyclopropyl]phenyl}piperidin-4-amine] |
| 0.158 µM | – | N#CC1(c2ccc(N[C@H]3CC[C@H](S(=O)(=O)c4ccc(-c5ccc6nccn6c5)cc4)CC3)cc2)CC1 [Example 15, 1-(4-{[trans-4-(4-{imidazo[1,2-a]pyridin-6-yl}benzenesulfonyl)cyclohexyl]Amino}phenyl)cyclopropane-1-carbonitrile] |
| 0.0631 µM | – | CC(C)c1nnc2cnc(-c3ccc(S(=O)(=O)N4CCC(Nc5ccc(C6(C(F)(F)F)CC6)cn5)CC4)cc3)cn12 [Example 39, N-(1-{4-[3-(propan-2-yl)-[1,2,4]triazolo[4,3-a]pyrazin-6-yl]benzenesulfonyl}piperidin-4-yl)-5-[1-(trifluoromethyl)cyclopropyl]pyridin-2-amine] |
| 0.398 µM | – | O=S(=O)(c1ccc(-c2ccc3nccn3c2)cc1)[C@H]1CC[C@H](Nc2ccc(C3COC3)cc2)CC1 [Example 18, 4-(oxetan-3-yl)-N-[trans-4-(4-{imidazo[1,2-a]pyridin-6-yl}benzenesulfonyl)cyclohexyl]aniline] |
| 0.2 µM | – | CC(C)c1cnc2ccc(-c3ccc(S(=O)(=O)N4CCC(Nc5ccc(C6(C#N)CC6)cn5)CC4)cc3)cn12 [Example 34, 1-{6-[(1-{4-[3-(propan-2-yl)imidazo[1,2-a]pyridin-6-yl]benzenesulfonyl}piperidin-4-yl)amino]pyridin-3-yl}cyclopropane-1-carbonitrile] |
| 0.1 µM | – | CC(C)c1cnc2ccc(-c3ccc(S(=O)(=O)N4CCC(Nc5ccc(C6(C(F)(F)F)CC6)cc5)CC4)cc3)cn12 [Example 10, 1-{4-[3-(propan-2-yl)imidazo[1,2-a]pyridin-6-yl]benzenesulfonyl}-N-{4-[1-(trifluoromethyl)cyclopropyl]phenyl}piperidin-4-amine] |
